Experiments:
Test in all cases: KINOMEscan
[1] = target: T1, CIT (Homo sapiens, UniProt O14578); type: binding
T1 construct: purchased Eurofins DiscoverX KINOMEscan
Outline: (§1)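 Kd determination: 12-pt half-log series, top 33 μM; 1 h binding, RT; unbound kinase pulled down on immobilized ligand, measured by qPCR.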

[2] = target: T2, MAK (Homo sapiens, UniProt P20794); type: binding
T2 construct: purchased Eurofins DiscoverX KINOMEscan
Outline: as §1

[3] = target: T3, EPHA3 (Homo sapiens, UniProt P29320); type: binding
T3 construct: purchased Eurofins DiscoverX KINOMEscan
T3 sequence (P29320 21-983): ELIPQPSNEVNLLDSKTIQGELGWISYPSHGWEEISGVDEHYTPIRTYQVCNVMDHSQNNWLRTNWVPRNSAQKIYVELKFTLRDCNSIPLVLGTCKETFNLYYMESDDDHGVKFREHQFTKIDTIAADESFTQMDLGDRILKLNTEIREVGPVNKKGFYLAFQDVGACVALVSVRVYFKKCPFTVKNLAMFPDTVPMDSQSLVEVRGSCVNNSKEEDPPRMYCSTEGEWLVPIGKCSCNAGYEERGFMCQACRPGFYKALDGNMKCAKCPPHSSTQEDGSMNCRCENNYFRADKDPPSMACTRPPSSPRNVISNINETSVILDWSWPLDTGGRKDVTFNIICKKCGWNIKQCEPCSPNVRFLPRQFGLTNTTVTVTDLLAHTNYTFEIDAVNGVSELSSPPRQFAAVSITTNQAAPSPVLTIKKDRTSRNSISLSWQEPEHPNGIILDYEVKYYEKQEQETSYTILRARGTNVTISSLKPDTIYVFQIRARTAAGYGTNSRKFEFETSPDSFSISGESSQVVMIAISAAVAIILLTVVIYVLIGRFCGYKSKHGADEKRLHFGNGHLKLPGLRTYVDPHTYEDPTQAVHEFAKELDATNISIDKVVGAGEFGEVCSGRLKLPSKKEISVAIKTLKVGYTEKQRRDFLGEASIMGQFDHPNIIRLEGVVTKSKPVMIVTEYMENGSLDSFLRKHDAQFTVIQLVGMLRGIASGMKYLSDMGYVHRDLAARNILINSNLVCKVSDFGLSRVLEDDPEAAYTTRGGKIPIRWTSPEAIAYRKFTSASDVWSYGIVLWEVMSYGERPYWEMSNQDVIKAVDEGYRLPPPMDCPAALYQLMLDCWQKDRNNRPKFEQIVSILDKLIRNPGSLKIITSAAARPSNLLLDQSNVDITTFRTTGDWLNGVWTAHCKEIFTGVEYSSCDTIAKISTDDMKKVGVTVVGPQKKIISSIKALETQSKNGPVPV
Outline: as §1

[4] = target: T4, ABL1 (H396P)-non-P (Homo sapiens, UniProt P00519, H396P); type: binding
T4 construct: purchased Eurofins DiscoverX KINOMEscan
Outline: as §1

[5] = tested on: FLT3 (ITD); type: binding, human; settings: 10 μM
Procedure: (§2) Kinase profiling was performed by KINOMEscan (Eurofins Pharma Discovery, San Diego, CA, USA), using a panel of 423 protein kinases, as described previously. Compounds were submitted for dissociation constant (Kd) determination toward several target kinases using KINOMEscan. […] Binding reactions were performed at room temperature for 1 h, and the fraction of kinase not bound to the test compound was determined by capture with an immobilized affinity ligand and quantified by quantitative polymerase chain reaction. The primary screening at fixed concentrations of the compound was performed in duplicate. For dissociation constant Kd determination, a 12-point half-log dilution series (a maximum concentration of 33 μM) was used.

[6] = tested on: FLT3 (ITD, F691L); type: binding, human; settings: 10 μM
Procedure: as §2

[7] = tested on: FLT3 (ITD, D835V); type: binding, human; settings: 10 μM
Procedure: as §2

[8] = tested on: EGFR (L747-T751 del, Sins); type: binding, human; settings: 10 μM
Procedure: as §2

T2 sequence (P20794 whole entry): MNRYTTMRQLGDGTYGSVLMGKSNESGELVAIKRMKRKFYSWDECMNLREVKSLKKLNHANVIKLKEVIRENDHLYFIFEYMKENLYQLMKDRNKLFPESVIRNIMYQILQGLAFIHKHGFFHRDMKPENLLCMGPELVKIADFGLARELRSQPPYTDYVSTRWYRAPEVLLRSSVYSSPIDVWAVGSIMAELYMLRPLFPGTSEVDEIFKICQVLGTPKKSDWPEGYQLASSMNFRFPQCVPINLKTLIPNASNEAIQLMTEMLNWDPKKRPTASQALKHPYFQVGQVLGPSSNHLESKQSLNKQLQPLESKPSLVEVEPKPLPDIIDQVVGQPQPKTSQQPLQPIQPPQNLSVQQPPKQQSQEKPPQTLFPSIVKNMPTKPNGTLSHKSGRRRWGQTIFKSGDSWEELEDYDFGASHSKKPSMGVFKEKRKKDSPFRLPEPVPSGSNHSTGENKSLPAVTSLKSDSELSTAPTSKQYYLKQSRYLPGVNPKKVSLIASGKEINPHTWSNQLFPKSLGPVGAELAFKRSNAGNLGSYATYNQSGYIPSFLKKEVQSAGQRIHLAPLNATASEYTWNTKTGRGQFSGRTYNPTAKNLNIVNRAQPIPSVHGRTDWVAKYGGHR
T1 sequence (O14578 whole entry): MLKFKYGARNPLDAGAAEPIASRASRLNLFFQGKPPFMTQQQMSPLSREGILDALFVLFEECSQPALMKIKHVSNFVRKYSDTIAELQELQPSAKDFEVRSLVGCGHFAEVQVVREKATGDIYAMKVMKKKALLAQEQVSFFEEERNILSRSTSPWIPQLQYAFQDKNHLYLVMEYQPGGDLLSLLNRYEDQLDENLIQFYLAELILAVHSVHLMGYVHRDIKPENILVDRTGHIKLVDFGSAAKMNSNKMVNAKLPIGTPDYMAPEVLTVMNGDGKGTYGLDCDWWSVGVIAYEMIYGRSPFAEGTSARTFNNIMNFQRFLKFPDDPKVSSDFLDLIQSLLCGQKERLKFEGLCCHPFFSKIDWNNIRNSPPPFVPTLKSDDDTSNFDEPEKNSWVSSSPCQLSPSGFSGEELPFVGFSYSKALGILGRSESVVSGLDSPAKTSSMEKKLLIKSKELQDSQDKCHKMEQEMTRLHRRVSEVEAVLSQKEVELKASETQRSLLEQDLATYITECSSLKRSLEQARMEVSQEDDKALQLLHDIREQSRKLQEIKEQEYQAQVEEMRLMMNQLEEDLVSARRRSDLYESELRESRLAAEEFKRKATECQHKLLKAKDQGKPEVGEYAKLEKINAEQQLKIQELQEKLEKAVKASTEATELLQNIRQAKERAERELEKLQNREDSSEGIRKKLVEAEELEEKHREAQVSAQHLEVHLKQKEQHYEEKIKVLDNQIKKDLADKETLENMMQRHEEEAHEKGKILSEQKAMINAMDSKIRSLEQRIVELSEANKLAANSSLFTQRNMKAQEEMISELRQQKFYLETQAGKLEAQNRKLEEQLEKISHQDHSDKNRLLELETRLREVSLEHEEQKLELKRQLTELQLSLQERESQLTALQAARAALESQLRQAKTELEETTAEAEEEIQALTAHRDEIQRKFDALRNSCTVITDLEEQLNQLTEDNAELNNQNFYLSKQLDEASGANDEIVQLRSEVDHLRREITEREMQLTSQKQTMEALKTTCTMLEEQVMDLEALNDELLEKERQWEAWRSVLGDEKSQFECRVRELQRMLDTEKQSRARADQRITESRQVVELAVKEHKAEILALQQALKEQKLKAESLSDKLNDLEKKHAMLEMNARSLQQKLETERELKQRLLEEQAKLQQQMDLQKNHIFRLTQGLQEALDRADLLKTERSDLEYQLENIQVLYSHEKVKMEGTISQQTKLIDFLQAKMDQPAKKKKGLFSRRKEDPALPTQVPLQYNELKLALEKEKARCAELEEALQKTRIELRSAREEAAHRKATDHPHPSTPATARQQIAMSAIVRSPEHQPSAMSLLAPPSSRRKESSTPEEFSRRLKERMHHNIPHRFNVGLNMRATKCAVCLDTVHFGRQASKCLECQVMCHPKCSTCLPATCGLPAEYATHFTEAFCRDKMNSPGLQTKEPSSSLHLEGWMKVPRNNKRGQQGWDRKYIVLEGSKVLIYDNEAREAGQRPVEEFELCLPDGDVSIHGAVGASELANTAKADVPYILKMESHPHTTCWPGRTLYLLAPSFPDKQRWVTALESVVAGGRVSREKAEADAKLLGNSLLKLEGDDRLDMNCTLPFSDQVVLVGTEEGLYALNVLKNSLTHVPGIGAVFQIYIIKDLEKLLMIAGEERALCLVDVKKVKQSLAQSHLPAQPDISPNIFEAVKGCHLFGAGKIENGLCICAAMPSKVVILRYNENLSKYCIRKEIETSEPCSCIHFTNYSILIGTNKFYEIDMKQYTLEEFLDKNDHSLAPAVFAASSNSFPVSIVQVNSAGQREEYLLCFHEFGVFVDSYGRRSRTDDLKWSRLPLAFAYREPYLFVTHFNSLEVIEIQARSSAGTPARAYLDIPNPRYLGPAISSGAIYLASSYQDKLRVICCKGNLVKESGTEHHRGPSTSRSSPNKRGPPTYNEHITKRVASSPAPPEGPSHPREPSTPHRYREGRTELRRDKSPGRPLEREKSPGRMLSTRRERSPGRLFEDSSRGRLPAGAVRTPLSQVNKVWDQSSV

O=C1Nc2c(cc([N+](=O)[O-])c3c2CCCC3)C1=NO [Compound 5d, 3-(Hydroxyimino)-5-nitro-1,3,6,7,8,9-hexahydro-2H-benzo[g]indol-2-one]
inhibition at 10 µM [1]: 92.8%
inhibition at 10 µM [2]: 5%
inhibition at 10 µM [3]: 45%
inhibition at 10 µM [4]: 65%
Inhib. (%) [5]: 29%
Inhib. (%) [6]: 66%
Inhib. (%) [7]: 65%
Inhib. (%) [8]: 22%

From paper PMC12300041, “Tricyclic Isatin Derivatives as Anti-Inflammatory Compounds with High Kinase Binding Affinity” (Molecules, 2025)
